From patent US8410302B2, “Methoxyimino compounds and fungicide composition comprising same” (Kyung Nong Corporation, priority 2007, dated 2013)

How the values were obtained:
[1] = tested on: Puccinia recondita; experiment: Fungicidal activity against wheat leaf rust (WLR) disease, control value; format: in vivo; conditions: for WLR control value (C.V.): wheat leaf rust
[2] = tested on: Rhizoctonia solani AG-1; experiment: Fungicidal activity against rice sheath blight (RSB) disease, control value; conditions: for RSB control value (C.V.): rice sheath blight
[3] = tested on: Erysiphae graminis; experiment: Fungicidal activity against barley powdery mildew (BPM) disease, control value; format: in vivo; conditions: for BPM control value (C.V.): barley powdery mildew
[4] = tested on: Phytophthora infestans; experiment: whole plant or invertebrate; format: in vivo; conditions: for TLB control value (C.V.): tomato late blight
[5] = tested on: Pyricularia oryzae Carvara KA301; experiment: whole plant or invertebrate; format: in vivo; conditions: for RCB control value (C.V.): rice blast
[6] = tested on: Botrytis cinerae; experiment: Fungicidal activity against cucumber gray mold rot (CGM) disease, control value; format: in vivo; conditions: for CGM control value (C.V.): 100 ppm, cucumber gray mold rot
[7] = Rhizoctonia solani, AG1, in Oryza sativa, read-out: RSB control value (C.V.)
[8] = Phytophthora infestans, in Solanum lycopersicum, read-out: TLB control value (C.V.)
[9] = Pyricularia oryzae, read-out: RCB control value (C.V.)

CO/N=C(/C(=O)OC)c1ccccc1COc1ccccc1C [Kresoxim-methyl, reference compound]
pest or weed control at 0.4 ppm ([1]; Puccinia recondita, 0.4 ppm, read-out: WLR control value (C.V.)): 85%
pest or weed control at 2 ppm ([1]; Puccinia recondita, 2 ppm, read-out: WLR control value (C.V.)): 95%
pest or weed control at 10 ppm ([1]; Puccinia recondita, 10 ppm, read-out: WLR control value (C.V.)): 100%
pest or weed control at 50 ppm ([1]; Puccinia recondita, 50 ppm, read-out: WLR control value (C.V.)): 100%
pest or weed control at 0.4 ppm [2, 7]: 67%
pest or weed control at 2 ppm [2, 7]: 90%
pest or weed control at 10 ppm [2, 7]: 98%
pest or weed control at 50 ppm [2, 7]: 100%
pest or weed control at 0.4 ppm ([3]; 168 h, 0.4 ppm, read-out: BPM control value (C.V.)): 95%
pest or weed control at 2 ppm ([3]; 168 h, 2 ppm, read-out: BPM control value (C.V.)): 100%
pest or weed control at 10 ppm ([3]; 168 h, 10 ppm, read-out: BPM control value (C.V.)): 100%
pest or weed control at 50 ppm ([3]; 168 h, 50 ppm, read-out: BPM control value (C.V.)): 100%
pest or weed control at 0.4 ppm [4, 8]: 30%
pest or weed control at 2 ppm [4, 8]: 80%
pest or weed control at 10 ppm [4, 8]: 95%
pest or weed control at 50 ppm [4, 8]: 100%
pest or weed control at 0.4 ppm [5, 9]: 30%
pest or weed control at 2 ppm [5, 9]: 60%
pest or weed control at 10 ppm [5, 9]: 95%
pest or weed control at 50 ppm [5, 9]: 100%
pest or weed control at 50 ppm ([6]; Botrytis, 50 ppm, read-out: CGM control value (C.V.)): 30%

CNC(=O)/C(=N/OC)c1ccccc1CON=C(C)c1ccc(C=C(F)F)cc1 [Example 30, (E)-2-[[[[[2-[4-(2,2-difluorovinyl)phenyl](1-methyl)methylidene]amino]oxy]methyl]phenyl]-2-methoxyimino-N-methylacetamide]
WLR control value (C.V.) ([1]; 2 ppm): 90%
WLR control value (C.V.) ([1]; 10 ppm): 100%
WLR control value (C.V.) ([1]; 50 ppm): 100%
WLR control value (C.V.) ([1]; 100 ppm): 100%
RSB control value (C.V.) ([2]; 100 ppm): 45%
BPM control value (C.V.) ([3]; 50 ppm): 60%
BPM control value (C.V.) ([3]; 100 ppm): 98%
TLB control value (C.V.) ([4]; 2 ppm): 100%
TLB control value (C.V.) ([4]; 10 ppm): 100%
TLB control value (C.V.) ([4]; 50 ppm): 100%
TLB control value (C.V.) ([4]; 100 ppm): 100%
RCB control value (C.V.) ([5]; 2 ppm): 100%
RCB control value (C.V.) ([5]; 10 ppm): 100%
RCB control value (C.V.) ([5]; 50 ppm): 100%
RCB control value (C.V.) ([5]; 100 ppm): 100%
CGM control value (C.V.) [6]: 60%

CO/N=C(/C(=O)OC)c1ccccc1CON=C(C)c1cccc(C=C(Cl)Cl)c1 [Example 19, methyl-(E)-2-[[[[[2-[3-(2,2-dichlorovinyl)phenyl](1-methyl)methylidene]amino]oxy]methyl]phenyl]-2-methoxyiminoacetate]
WLR control value (C.V.) ([1]; 2 ppm): 98%
WLR control value (C.V.) ([1]; 10 ppm): 100%
WLR control value (C.V.) ([1]; 50 ppm): 100%
WLR control value (C.V.) ([1]; 100 ppm): 100%
RSB control value (C.V.) ([2]; 100 ppm): 80%
BPM control value (C.V.) ([3]; 2 ppm): 100%
BPM control value (C.V.) ([3]; 10 ppm): 100%
BPM control value (C.V.) ([3]; 50 ppm): 100%
BPM control value (C.V.) ([3]; 100 ppm): 100%
TLB control value (C.V.) ([4]; 2 ppm): 80%
TLB control value (C.V.) ([4]; 10 ppm): 92%
TLB control value (C.V.) ([4]; 50 ppm): 100%
TLB control value (C.V.) ([4]; 100 ppm): 100%
RCB control value (C.V.) ([5]; 2 ppm): 98%
RCB control value (C.V.) ([5]; 10 ppm): 100%
RCB control value (C.V.) ([5]; 50 ppm): 100%
RCB control value (C.V.) ([5]; 100 ppm): 100%
CGM control value (C.V.) [6]: 59%

CNC(=O)/C(=N/OC)c1ccccc1CON=C(C)c1cccc(C=C(Cl)Br)c1 [Example 36, (E)-2-[[[[[2-[3-(2-bromo-2-chlorovinyl)phenyl](1-methyl)methylidene]amino]oxy]methyl]phenyl]-2-methoxyimino-N-methylacetamide]
WLR control value (C.V.) ([1]; 2 ppm): 100%
WLR control value (C.V.) ([1]; 10 ppm): 100%
WLR control value (C.V.) ([1]; 50 ppm): 100%
WLR control value (C.V.) ([1]; 100 ppm): 100%
RSB control value (C.V.) ([2]; 2 ppm): 67%
RSB control value (C.V.) ([2]; 10 ppm): 90%
RSB control value (C.V.) ([2]; 50 ppm): 98%
RSB control value (C.V.) ([2]; 100 ppm): 100%
BPM control value (C.V.) ([3]; 2 ppm): 100%
BPM control value (C.V.) ([3]; 10 ppm): 100%
BPM control value (C.V.) ([3]; 50 ppm): 100%
BPM control value (C.V.) ([3]; 100 ppm): 100%
TLB control value (C.V.) ([4]; 2 ppm): 30%
TLB control value (C.V.) ([4]; 10 ppm): 80%
TLB control value (C.V.) ([4]; 50 ppm): 100%
TLB control value (C.V.) ([4]; 100 ppm): 100%
RCB control value (C.V.) ([5]; 2 ppm): 100%
RCB control value (C.V.) ([5]; 10 ppm): 100%
RCB control value (C.V.) ([5]; 50 ppm): 100%
RCB control value (C.V.) ([5]; 100 ppm): 100%
CGM control value (C.V.) [6]: 65%
